Test results reported in ChEMBL document CHEMBL1201862, “PubChem BioAssay data set” (2004).
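Exposure lasted 48 hours, with cells grown in 96-well plates and compounds tested at five concentrations. The concentration for 50% growth inhibition is given as GI50.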 Calls of active or inactive are those of the source. Rule as the data show it: active = GI50 up to about 1.1 µM and inactive = higher.

Experiments:
Assay in all cases: growth of human tumour cells (NCI), 48 h
[1] = test system: HCT-15
[2] = test system: UACC-62
[3] = test system: LOX IMVI
[4] = test system: EKVX
[5] = test system: HCT-116
[6] = test system: NCI-H522
[7] = test system: K562
[8] = test system: NCI-H226
[9] = test system: SN12C
[10] = test system: HT-29
[11] = test system: BT-549
[12] = test system: SK-OV-3
[13] = test system: Hs-578T
[14] = test system: KM12
[15] = test system: OVCAR-5
[16] = test system: RPMI-8226
[17] = test system: MDA-MB-231
[18] = test system: HOP-92
[19] = test system: OVCAR-3
[20] = test system: RXF 393

Row | SMILES | GI50 [1] | GI50 [2] | GI50 [3] | GI50 [4] | GI50 [5] | GI50 [6] | GI50 [7] | GI50 [8] | GI50 [9] | GI50 [10] | GI50 [11] | GI50 [12] | GI50 [13] | GI50 [14] | GI50 [15] | GI50 [16] | GI50 [17] | GI50 [18] | GI50 [19] | GI50 [20]
1 | COC(=O)c1ccccc1OCc1cc(=O)oc2ccc(C)cc12 | > 100 µM | > 39.2 µM (inactive) | > 69.2 µM (inactive) | > 100 µM (inactive) | 43.1 µM (inactive) | 14.8 µM (inactive) | > 100 µM (inactive) | 90.4 µM (inactive) | > 100 µM (inactive) | 49.5 µM (inactive) | 18.1 µM (inactive) | 63.8 µM (inactive) | 27.3 µM (inactive) | > 100 µM (inactive) | > 100 µM (inactive) | > 63.4 µM (inactive) | 84.9 µM (inactive) | 24 µM (inactive) | 29.4 µM (inactive) | 
2 | C[C@H]1C/C=C/[C@H]2[C@@H]3O[C@]3(C)[C@@H](C)[C@H]3[C@H](Cc4ccccc4)NC(=O)[C@]32OC(=O)O/C=C/[C@@](C)(O)C1=O [CYTOCHALASIN E] | 0.0834 µM | 0.1 µM (active) | 0.0128 µM (active) | 0.075 µM (active) |  | 0.0431 µM (active) | 1.72 µM (inactive) | 0.0333 µM (active) | 3.16 µM (inactive) | 0.0194 µM (active) | 0.0392 µM (active) | 0.0292 µM (active) | 0.0171 µM (active) | 17.5 µM (inactive) | 11.3 µM (inactive) | 0.556 µM (active) | < 0.01 µM (active) | 0.0239 µM (active) | 0.0975 µM (active) | 0.0111 µM (active)
3 | O=C(NCCC1([N+](=O)[O-])CCN(C(=O)c2ccccc2)CC1)c1ccccc1 | > 100 µM | 57.4 µM (inactive) |  | > 100 µM (inactive) | > 100 µM (inactive) | > 100 µM (inactive) | > 100 µM (inactive) | > 100 µM (inactive) | > 100 µM (inactive) | 45.6 µM (inactive) | > 100 µM (inactive) | > 100 µM (inactive) | > 100 µM (inactive) | > 100 µM (inactive) | > 100 µM (inactive) | 58.7 µM (inactive) | > 100 µM (inactive) | < 0.01 µM (active) |  | 67 µM (inactive)
4 | N#Cc1c2ccc([N+](=O)[O-])cc2c(=O)n2c1[nH]c1ccc(C(F)(F)F)cc12 | 16.1 µM | 42.7 µM (inactive) | 6.56 µM (inactive) | > 100 µM (inactive) | 10.1 µM (inactive) | 7.28 µM (inactive) | 12.5 µM (inactive) | 14.3 µM (inactive) | > 42.4 µM (inactive) | 11.2 µM (inactive) | 25.2 µM (inactive) | 41.9 µM (inactive) | 24.4 µM (inactive) | 24.8 µM (inactive) | 14.3 µM (inactive) | 4.48 µM (inactive) | 22.2 µM (inactive) | 12.9 µM (inactive) | 18.2 µM (inactive) | 
5 | CC[C@H](C)C1=C(O)[N@+]2([O-])Oc3ccc(-c4c(O)c(O)c(-c5ccc(O)cc5)c(OC(C)=O)c4OC(C)=O)cc3O[C@]2([C@@H](C)CC)C(=O)N1O | 17 µM | 17.4 µM (inactive) | 22.4 µM (inactive) | > 50 µM (inactive) | 10.1 µM (inactive) | 7.85 µM (inactive) | 21.4 µM (inactive) |  | 19.3 µM (inactive) | 15.7 µM (inactive) | 25.6 µM (inactive) | 15.9 µM (inactive) | 26.5 µM (inactive) | 33.7 µM (inactive) | > 50 µM (inactive) | 10.6 µM (inactive) | > 50 µM (inactive) | 6.52 µM (inactive) | 19.8 µM (inactive) | > 50 µM (inactive)
6 | Cc1ccc(C(C)C)c(OCC(=O)N/N=C/c2c[nH]c3ccc(Br)cc23)c1 | 2.1 µM | 2.29 µM (inactive) | 3.69 µM (inactive) | 2.86 µM (inactive) | 3.15 µM (inactive) | 1.43 µM (inactive) | 2.38 µM (inactive) |  | 3.27 µM (inactive) | 2.11 µM (inactive) | 4.99 µM (inactive) | 2.58 µM (inactive) | 4.82 µM (inactive) | 1.41 µM (inactive) | 5.11 µM (inactive) | 2.47 µM (inactive) | 3.17 µM (inactive) | 12.3 µM (inactive) | 2.19 µM (inactive) | 1.37 µM (inactive)
7 | CCOC(=O)c1cc2c3c(c(C(C)=O)c(O)c2[nH]1)N(CC(C)CC)CC3 (stereo unspecified) | 70.3 µM | 71.6 µM (inactive) | 42.2 µM (inactive) | 38.9 µM (inactive) | 42.3 µM (inactive) | 24.2 µM (inactive) | 32.5 µM (inactive) | 41.5 µM (inactive) | > 100 µM (inactive) | > 100 µM (inactive) | 45.5 µM (inactive) | 60.8 µM (inactive) | 8.97 µM (inactive) | 56.4 µM (inactive) |  | 36.1 µM (inactive) | 33 µM (inactive) | 45.3 µM (inactive) |  | 34.6 µM (inactive)
8 | Cc1c(C)c2c(c(N)c1C#N)C(=O)N(OS(=O)(=O)c1ccccc1)C2=O | 20.9 µM | 23.9 µM (inactive) | 26.2 µM (inactive) | 18.9 µM (inactive) | 4.42 µM (inactive) | 17.1 µM (inactive) | 16.7 µM (inactive) | 18.5 µM (inactive) | 23.7 µM (inactive) |  | 19.9 µM (inactive) |  | 34.8 µM (inactive) | 64.9 µM (inactive) | > 100 µM (inactive) | 15.1 µM (inactive) | 52.8 µM (inactive) | 17 µM (inactive) | 22.2 µM (inactive) | 15.2 µM (inactive)
9 | C=CCn1c(N)c(C#N)c(C#N)c1CCC | > 100 µM | > 100 µM (inactive) | > 100 µM (inactive) | 42.7 µM (inactive) |  | > 100 µM (inactive) | > 100 µM (inactive) | > 100 µM (inactive) | > 100 µM (inactive) | > 100 µM (inactive) | > 100 µM (inactive) | > 100 µM (inactive) | > 100 µM (inactive) | > 100 µM (inactive) | > 100 µM (inactive) | > 100 µM (inactive) | > 100 µM (inactive) | > 100 µM (inactive) | 74.6 µM (inactive) | > 100 µM (inactive)
10 | S=C(N/N=C/c1ccccn1)Nc1ccc(Cl)cc1 | 0.0398 µM | 0.114 µM (active) | 0.06 µM (active) | 0.0682 µM (active) | 0.0449 µM (active) | 0.028 µM (active) | < 0.01 µM (active) | 0.0845 µM (active) | 0.32 µM (active) | 0.0426 µM (active) | 0.233 µM (active) | 0.0378 µM (active) | 1.85 µM (inactive) | 0.175 µM (active) | 0.191 µM (active) | 0.134 µM (active) | 0.0542 µM (active) | 0.282 µM (active) | < 0.01 µM (active) | 
11 | CO[P@@]1(=O)O[C@@H](c2ccccc2)[C@H](O)[C@]1(O)c1ccccc1 | > 100 µM | > 100 µM (inactive) | > 100 µM (inactive) | 24.9 µM (inactive) | > 100 µM (inactive) | > 100 µM (inactive) | > 100 µM (inactive) | > 100 µM (inactive) | > 100 µM (inactive) | 34 µM (inactive) | > 100 µM (inactive) | > 100 µM (inactive) | > 100 µM (inactive) | > 100 µM (inactive) |  | > 100 µM (inactive) | > 100 µM (inactive) | > 100 µM (inactive) | > 100 µM (inactive) | > 100 µM (inactive)
